# Test results: patent publication US10980808B2, “Calmodulin inhibitors, Chk2 inhibitors and RSK inhibitors for the treatment of ribosomal disorders and ribosomapathies” (THE CHILDREN'S MEDICAL CENTER CORPORATION, priority 2016, dated 2021)
# pIC50: −log10 of the molar value. Entries after “also recorded” stand apart in the source; their conditions may differ.
# Assays:
# [1] = system: rps29−/− zebrafish embryos; assay: hemoglobin (benzidine staining) rescue in rps29-/- zebrafish embryos; assay type: in vivo; details: for hemoglobin (Hb) in rps29−/− embryos: benzidine staining; for Hb increase at low concentrations: rps29−/− embryos, compared with positive control fluphenazine / with DB-4-089
# [2] = system: RPS19 deficient cord blood derived CD34+ cells; assay: human in vitro model of DBA: cord blood CD34+ cells with RPS19 shRNA, erythroid differentiation; assay type: cell-based
# [3] = system: 293T cells with RPS19 shRNA; assay: phosphorylation in 293T cells with RPS19 shRNA; assay type: cell-based, human; details: for phosphorylation of p70S6K: during ribosomal protein deficiency
# From the text: FIGS. 17A to 17C are scehmatics and gels that indicate CaM and Chk2 inhibitors block phosphorylation of p70S6K selectively during RP deficiency. FIG. 17A schematic, we used 293T cells, and induced ribosomal protein deficiency using shRNA for RPS19 or Luc for control. […] ERK phosphorylation is increased by these inhibitors, which is also seen with RSK inhibitors. FIG. 17C a gel of the effect of Luc and […] shRNA on phosphorylated S392. […] RSK inhibitors increase ERK phosphorylation through a negative feedback loop. So TFP and BML similarly affect ERK in the same manner.
# [4] = system: RPS19 deficient CD34 cells; assay: phosphorylation in RPS19 deficient CD34 cells; assay type: cell-based, human
# From the text: FIG. 18 is a schematic of the assay of RSK activation in human cells. The most relevant in vitro model in the blood field is primary human cells-such as Peripheral blood mononuclear cells (PBMCs). […] FIG. 19B schematic ov RP deficiency. TFP treatment reduces P-RPS6 and P-p53 […] and p53 total levels.
# [5] = system: p53 phosphorylation in 293T cells; assay: mass spectrometry of p53 post-translational modifications in 293T cells; assay type: cell-based; details: 3 hours; for percentage of peptides containing phosphorylated serine 392 of p53: WT-p53-GFP
# Experimental: FIGS. 10A to 10C show schematics, graphs and gels that indicate CaM and Chk2 inhibitors reduce S392 phosphorylation. FIG. 10A is a schematic of conserved regulatory region phosphorylation sites. FIG. 10B are graphs of an unbiased mass spectrometry analysis looking for post-translational modifications of p53 altered in the presence of the CaM inhibitor TFP or the Chk2 inhibitor, BML. 293T cells were transfected with WT-p53 tagged with GFP and treated with TFP or BML for 3 hours. P53 was immunoprecipitated using an antibody against GFP and was submitted for mass spec analysis. […] By two different mass spec methods, either conventional mass spec or by TMT tagging of the peptide we found in both cases the percentage of peptides containing phosphorylated serine 392 was reduced in TFP and BML treated samples (FIG. 10B). It was also noted that this serine is conserved in both zebrafish and mouse (FIG. 10A). FIG. 10C is a Western Blot that indicates phosphorylation decrease.
# p53 in Saos2 cells = assay: p53 activity in Saos2 cells transfected with p53 constructs (qPCR); assay type: cell-based
# Experimental: FIG. 9A a schematic of wild type P53 and deleted regulatory region p53 (p53 reg). FIG. 9[…] of procedure. Saos2 cells (p53-null cells) transiently transfected with p53 constructs and were treated with vehicle or 20 μM TFP for 24 hours. TFP activity on p53 was assessed by the ability of TFP to reduce p21 mRNA levels measured by qPCR. FIG. 9C is a graph of p21 RNA expression. Since our compound decreases p53 activity, we wanted to determine the region of p53 is responsible for CaM inhibitor activity. […] Next, the c-terminal 30 amino acids from p53 (363-393) were removed. This construct is p53-reg. […] FIGS. 11A to 11C are schematics and graphs which indicate that p53 S392 phhosphomimetic prevents TFP from reducing p53 activity. To confirm the importance of the ability of CaM inhibitors to block the phosphorylation of p53, we created phosphomimetic p53 by replacing […], which mimics constitutive phosphorylation. We also generated a control phosphomimetic p53 where […]. This mutant should have no effect on the ability of TFP to reduce p53 activity. FIG. 11A is a schematic of experiment used to test these mutants, we transiently transfected, WT p53, […] and […] into Saos2 cells and treated them with vehicle or TFP. To assess p53 activity, we examined p21 and MDM2 mRNA levels. FIG. 11B is a graph of p21 Expression. FIG. 11C is a graph of MDM2 mRNA expression. […] Confirming that blocking the S392 phosphorylation is important for the activity of TFP.
# Rps19 deficient mice = assay: DBA dox-inducible RPS19 knockdown mouse model; assay type: in vivo; details: treated every other day for 2 weeks
# 6 dpf WT zebrafish = assay: zebrafish behavior tracking (proxy for BBB permeation); details: for zebrafish movement / swimming behavior vs DMSO: 6 dpf, drug in fish water, tracked 1-2 h
# [6] = system: rps29−/− zebrafish embryos; assay: chemical screen: rescue of morphological, hematopoietic and endothelial defects of rps29-/- embryo; assay type: in vivo
# RSK3 = RSK3 (Homo sapiens, UniProt Q15349); details: in vitro; cited from earlier work
# Sequence of RSK3 (Q15349 whole entry): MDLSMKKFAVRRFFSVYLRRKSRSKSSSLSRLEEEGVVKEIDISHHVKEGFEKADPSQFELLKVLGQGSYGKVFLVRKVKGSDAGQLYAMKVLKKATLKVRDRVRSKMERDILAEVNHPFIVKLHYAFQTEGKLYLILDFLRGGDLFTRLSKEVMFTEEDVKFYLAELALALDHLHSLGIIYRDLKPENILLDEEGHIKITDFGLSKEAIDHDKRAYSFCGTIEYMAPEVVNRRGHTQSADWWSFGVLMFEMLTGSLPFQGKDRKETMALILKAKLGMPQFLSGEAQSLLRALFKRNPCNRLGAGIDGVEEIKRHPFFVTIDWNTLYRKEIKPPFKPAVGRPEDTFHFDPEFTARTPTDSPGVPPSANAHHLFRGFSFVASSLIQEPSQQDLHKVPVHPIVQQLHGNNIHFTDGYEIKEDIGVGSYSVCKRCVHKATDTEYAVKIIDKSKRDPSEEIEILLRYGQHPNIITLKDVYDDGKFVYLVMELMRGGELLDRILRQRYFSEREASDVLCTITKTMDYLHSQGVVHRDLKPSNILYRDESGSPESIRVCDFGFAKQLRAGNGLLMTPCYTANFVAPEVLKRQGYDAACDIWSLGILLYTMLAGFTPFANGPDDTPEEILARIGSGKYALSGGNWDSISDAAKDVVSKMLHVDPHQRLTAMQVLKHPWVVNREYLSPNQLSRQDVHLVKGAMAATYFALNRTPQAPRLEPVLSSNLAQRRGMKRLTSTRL
# RSK2 = RSK2 (Homo sapiens, UniProt P51812); details: in vitro; cited from earlier work
# Sequence of RSK2 (P51812 whole entry): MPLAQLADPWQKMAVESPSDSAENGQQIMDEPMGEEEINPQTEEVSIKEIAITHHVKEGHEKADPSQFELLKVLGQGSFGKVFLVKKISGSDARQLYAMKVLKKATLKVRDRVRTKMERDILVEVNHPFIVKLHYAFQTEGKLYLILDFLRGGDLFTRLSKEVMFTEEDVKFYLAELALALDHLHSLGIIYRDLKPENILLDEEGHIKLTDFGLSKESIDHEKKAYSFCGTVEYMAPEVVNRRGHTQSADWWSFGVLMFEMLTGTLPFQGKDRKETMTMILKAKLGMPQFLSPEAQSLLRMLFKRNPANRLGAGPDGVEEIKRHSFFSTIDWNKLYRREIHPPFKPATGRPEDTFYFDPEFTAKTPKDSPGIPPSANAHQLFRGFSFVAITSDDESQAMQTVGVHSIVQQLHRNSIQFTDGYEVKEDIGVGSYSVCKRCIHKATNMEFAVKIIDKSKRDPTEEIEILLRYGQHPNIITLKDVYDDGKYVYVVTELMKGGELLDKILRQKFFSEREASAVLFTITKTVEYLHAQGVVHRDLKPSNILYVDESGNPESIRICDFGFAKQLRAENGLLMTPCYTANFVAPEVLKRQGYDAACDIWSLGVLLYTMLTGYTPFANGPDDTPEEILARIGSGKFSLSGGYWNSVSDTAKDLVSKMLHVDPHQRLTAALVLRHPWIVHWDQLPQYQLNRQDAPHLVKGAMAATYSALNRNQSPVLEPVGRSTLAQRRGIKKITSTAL
# RSK4 = RSK4 (Homo sapiens, UniProt Q9UK32); details: in vitro; cited from earlier work
# Sequence of RSK4 (Q9UK32 whole entry): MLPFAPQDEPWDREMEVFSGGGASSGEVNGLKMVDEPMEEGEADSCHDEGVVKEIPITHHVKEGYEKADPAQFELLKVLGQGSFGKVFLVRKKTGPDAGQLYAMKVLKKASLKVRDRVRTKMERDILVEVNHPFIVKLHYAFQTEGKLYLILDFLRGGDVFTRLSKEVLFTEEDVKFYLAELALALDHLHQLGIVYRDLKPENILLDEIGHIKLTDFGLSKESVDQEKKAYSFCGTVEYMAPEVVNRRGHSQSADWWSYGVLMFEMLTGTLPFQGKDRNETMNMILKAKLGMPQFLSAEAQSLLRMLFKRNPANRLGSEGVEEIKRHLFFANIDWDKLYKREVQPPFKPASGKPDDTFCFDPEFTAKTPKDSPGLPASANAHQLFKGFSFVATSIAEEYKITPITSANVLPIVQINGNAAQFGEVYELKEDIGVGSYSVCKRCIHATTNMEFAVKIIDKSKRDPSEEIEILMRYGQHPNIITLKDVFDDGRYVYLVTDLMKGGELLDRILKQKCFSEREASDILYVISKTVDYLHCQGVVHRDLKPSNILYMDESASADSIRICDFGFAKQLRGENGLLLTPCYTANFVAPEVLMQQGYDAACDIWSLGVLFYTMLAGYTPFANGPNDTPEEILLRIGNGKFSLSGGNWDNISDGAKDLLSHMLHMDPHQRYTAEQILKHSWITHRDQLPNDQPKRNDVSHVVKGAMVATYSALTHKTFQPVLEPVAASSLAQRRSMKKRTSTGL
# RSK1 = RSK1 (Homo sapiens, UniProt Q15418); details: in vitro; cited from earlier work
# Sequence of RSK1 (Q15418 whole entry): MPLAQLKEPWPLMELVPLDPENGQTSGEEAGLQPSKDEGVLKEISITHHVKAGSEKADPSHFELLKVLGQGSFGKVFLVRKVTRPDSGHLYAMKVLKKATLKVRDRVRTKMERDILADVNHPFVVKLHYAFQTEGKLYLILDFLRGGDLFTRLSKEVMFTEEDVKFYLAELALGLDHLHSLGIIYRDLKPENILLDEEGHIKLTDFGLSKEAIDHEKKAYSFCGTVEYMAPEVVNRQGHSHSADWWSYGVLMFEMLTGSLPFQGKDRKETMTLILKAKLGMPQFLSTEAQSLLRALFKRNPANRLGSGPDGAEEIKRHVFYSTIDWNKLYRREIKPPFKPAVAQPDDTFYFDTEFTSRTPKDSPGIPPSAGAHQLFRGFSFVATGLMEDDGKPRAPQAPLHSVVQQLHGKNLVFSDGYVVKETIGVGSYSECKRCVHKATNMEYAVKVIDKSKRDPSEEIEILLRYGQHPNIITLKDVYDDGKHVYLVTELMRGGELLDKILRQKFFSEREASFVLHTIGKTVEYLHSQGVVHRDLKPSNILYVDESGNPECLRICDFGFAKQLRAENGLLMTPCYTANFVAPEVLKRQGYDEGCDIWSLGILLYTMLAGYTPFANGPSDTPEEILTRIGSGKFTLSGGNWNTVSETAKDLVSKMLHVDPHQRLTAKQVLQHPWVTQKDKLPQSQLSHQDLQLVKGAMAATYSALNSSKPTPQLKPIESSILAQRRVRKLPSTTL
# p70S6K = p70S6K (Homo sapiens, UniProt P23443); assay: in vitro kinase profiling (Thermo Fisher SelectScreen), p70S6K; assay type: biochemical
# Sequence of p70S6K (P23443 whole entry): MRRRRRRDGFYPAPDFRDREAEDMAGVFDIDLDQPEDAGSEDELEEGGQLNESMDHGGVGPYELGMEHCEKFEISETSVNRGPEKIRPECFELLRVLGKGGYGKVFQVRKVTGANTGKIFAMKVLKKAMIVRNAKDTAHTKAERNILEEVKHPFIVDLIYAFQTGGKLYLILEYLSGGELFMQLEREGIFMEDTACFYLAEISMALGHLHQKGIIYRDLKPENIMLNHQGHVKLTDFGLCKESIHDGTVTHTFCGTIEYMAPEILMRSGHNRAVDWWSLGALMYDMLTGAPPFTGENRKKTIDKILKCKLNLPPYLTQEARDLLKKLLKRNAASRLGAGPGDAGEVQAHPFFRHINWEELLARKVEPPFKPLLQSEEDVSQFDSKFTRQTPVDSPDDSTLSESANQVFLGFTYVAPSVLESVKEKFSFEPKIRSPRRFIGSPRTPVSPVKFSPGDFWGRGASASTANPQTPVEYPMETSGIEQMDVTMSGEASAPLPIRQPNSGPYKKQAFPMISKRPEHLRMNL
# From the text: We asked if CaM and Chk2 inhibitors are blocking specific kinases. The known kinases that phosphorylate S392 are CK2 and p38. […] Thus, the question became what is TFP inhibiting upstream? Is it inhibiting a kinase that phosphorylates S392? We submitted CaM and Chk2 inhibitors for Kinase profiling using Thermo Fisher's SelectScreen.
# Raf = details: upstream kinase; cited from earlier work
# MEK = details: upstream kinase; cited from earlier work
# PKC = details: upstream kinase; cited from earlier work
# [7] = system: RPS19 shRNA CD34+ peripheral blood mononuclear cells; assay: primary human in vitro differentiation model of DBA: CD34+ PBMCs with RPS19 shRNA, CD71+ flow cytometry; assay type: cell-based; details: treated once for 5 days
# From the text: FIG. 40 is a schematic of the testing of novel phenothiazine derivatives in a human in vitro model of DBA. Primary human peripheral blood mononuclear cells (PBMCs) are transduced with RPS19-GFP shRNA to make a ribiosomal protein deficiency. Cells are transferred to eyrthroid differentiation media and treated once for 5 days with Drug. Cells are harvested and analyzed for erythroid precursors by flow cytomety for CD71^+ cells.
# We next tested three derivatives in our primary human in vitro differentiation model of DBA. To do this we expanded CD34+ peripheral blood mononuclear cells in culture for 2 days and induced ribosomal protein deficiency with a lentirvirus containing RPS19 shRNA (FIG. 40). After 3 days the cells are placed into erythroid differentiation media with or without the novel derivatives and cultured for 5 days. Erythroid differentiation is then assessed by flow cytometry analysis for the transferrin receptor, CD71+. […] In addition, the novel derivatives increased the absolute erythroid number compared to DMSO treated (FIG. 41). […] A table summarizing the activity of the compounds is found in FIG. 43.
# [8] = Saos2 cells with WT p53 or S15D p53
compound,measurement,setting,value
NCCNS(=O)(=O)c1cccc2c(Cl)cccc12 [A-3],hemoglobin (Hb) in rps29−/− embryos,[1],rescue Hb
"CN1CCN(CCCN2c3ccccc3Sc3ccc(C(F)(F)F)cc32)CC1 [TFP, trifluoperazine]",% erythroid precursor cells (CD71+) on day 12,[2],increases
same,p21 mRNA levels,[2],dose dependently decreases
same,ERK phosphorylation,[3],increased
same,phosphorylation of p70S6K,[3],selectively inhibited
same,P-RPS6,[4],reduces
same,P-p53 S392,[4],reduces
same,p53 total levels,[4],reduces
same,percentage of peptides containing phosphorylated Serine 6 of p53,[5],did not change
same,percentage of peptides containing phosphorylated Serine 315 of p53,[5],did not change
same,percentage of peptides containing phosphorylated serine 392 of p53,[5],reduced
same,hemoglobin (Hb) in rps29−/− embryos,[1],rescue Hb
same,ability of p53 to form a tetramer,p53 in Saos2 cells,did not inhibit
same,MDM2 mRNA levels,p53 in Saos2 cells; [8],able to reduce
same,p21 mRNA levels,p53 in Saos2 cells; [8],able to reduce
same,MDM2 mRNA levels,p53 in Saos2 cells; Saos2 cells with p53 S392D,unable to reduce
same,p21 mRNA levels,p53 in Saos2 cells; Saos2 cells with p53 S392D,unable to reduce
same,hemoglobin levels,Rps19 deficient mice,significantly increases
same,p21 mRNA levels (p53 activity) in bone marrow,Rps19 deficient mice,reduced; also recorded: decreases
same,red blood cell number,Rps19 deficient mice,significantly increases
"OCCN1CCN(CCCN2c3ccccc3Sc3ccc(C(F)(F)F)cc32)CC1 [FLU, fluphenazine]",hemoglobin (Hb) in rps29−/− embryos,[1],rescues better than either RSK or p70S6K inhibitor alone
same,hemoglobin (Hb) in rps29−/− embryos,[1]; listed as fluphenazine,increase Hb
O=C(O)CCC(=O)NCCN1CCN(CCCN2c3ccccc3Sc3ccc(Cl)cc32)CC1 [PerSucc],zebrafish movement / swimming behavior vs DMSO,6 dpf WT zebrafish,less active and rest more than DMSO treated fish
same,hemoglobin (Hb) in rps29−/− embryos,[1],dramatic rescue of Hb expression; also recorded: increase Hb
same,rescuing morphological defects and hematopoietic and endothelial defects,[6],work particularly well
CC(C)(C)OC(=O)CCN1CCN(CCCN2c3ccccc3Sc3ccc(Cl)cc32)CC1 [compound 083],Hb increase at low concentrations,[1],did not increase Hb at the same low concentrations
CC(C)NCCCN1c2ccccc2Sc2ccc(Cl)cc21 [088-3],Hb increase at low concentrations,[1],increase Hb at lower concentrations than the positive control phenothiazine
same,rescuing morphological defects and hematopoietic and endothelial defects,[6],work particularly well
CC(C)CCC1c2nc(Nc3cc(F)c(O)c(F)c3)ncc2N(C)C(=O)C1C (centres unmarked) [BI-D1870],pIC50,RSK3,7.74
same,pIC50,RSK2,7.62
same,pIC50,RSK4,7.82
same,pIC50,RSK1,7.51
NC1=N/C(=C2/CCNC(=O)c3cc4[nH]c5ccccc5c4cc32)C(=O)N1 [III],hemoglobin (Hb) in rps29−/− embryos,[1],Resues Hb; also recorded: rescue Hb
same,"percent inhibition of in vitro kinase activity, p70S6K",p70S6K,inhibition
Clc1ccc2c(c1)N(CCCN1CCN(CCNCCCOCCOCCOCCCNC(c3ccccc3)(c3ccccc3)c3ccccc3)CC1)c1ccccc1S2 [221E],zebrafish movement / swimming behavior vs DMSO,6 dpf WT zebrafish,more erratic activity
"3-[(3,4-Di-O-acetyl-6-deoxy-α-L-mannopyranosyl)oxy]-5,7-dihydro-2-(4-hydroxyphenyl)-4H-1benzopyran-4-one [SL]",inhibition of Raf,Raf,Does not inhibit
same,inhibition of MEK,MEK,Does not inhibit
same,inhibition of PKC,PKC,Does not inhibit
same,hemoglobin (Hb) in rps29−/− embryos,[1],increase Hb
CN1CCC(N(CCCN2c3ccccc3Sc3ccc(Cl)cc32)CCCN2c3ccccc3Sc3ccc(Cl)cc32)CC1 [compound 089],zebrafish movement / swimming behavior vs DMSO,6 dpf WT zebrafish,altered behavior; also recorded: alters movement
same,toxicity in behavior assay,6 dpf WT zebrafish; highest dose,toxic at the highest dose
same,Hb increase at low concentrations,[1],increase Hb at lower concentrations than the positive control phenothiazine
same,Hb increase at low concentrations,[1]; listed as DB-4-089,increased Hb at low concentrations
same,rescuing morphological defects and hematopoietic and endothelial defects,[6],work particularly well
same,percentage of erythroid precursor cells (CD71+) compared to DMSO,[7],increased the percentage of erythroid precursor cells
same,percentage of erythroid precursor cells (CD71+) compared to DMSO,[7]; listed as DB-4-089,increased eyrthroid differentiation
Clc1ccc2c(c1)N(CCCN1CCOCC1)c1ccccc1S2 [compound 086],Hb increase at low concentrations,[1],did not increase Hb at the same low concentrations
OCCN1CCN(CCCN2c3ccccc3Sc3ccc(Cl)cc32)CC1 [perphenizine],hemoglobin (Hb) in rps29−/− embryos,[1],increase Hb
Clc1ccc2c(c1)N(CCCN1CCCCC1)c1ccccc1S2 [compound 084],Hb increase at low concentrations,[1],did not increase Hb at the same low concentrations
NC(=O)c1ccc2nc(-c3ccc(Oc4ccc(Cl)cc4)cc3)[nH]c2c1 [BML],ERK phosphorylation,[3],increased
same,phosphorylation of p70S6K,[3],selectively inhibited
same,percentage of peptides containing phosphorylated Serine 6 of p53,[5],did not change
same,percentage of peptides containing phosphorylated Serine 315 of p53,[5],did not change
same,percentage of peptides containing phosphorylated serine 392 of p53,[5],reduced
NCCCCCCNS(=O)(=O)c1cccc2c(Cl)cccc12 [W-7],hemoglobin (Hb) in rps29−/− embryos,[1],rescue Hb
CC(C)N(CCCN1c2ccccc2Sc2ccc(Cl)cc21)CCCN1c2ccccc2Sc2ccc(Cl)cc21 [088-2],Hb increase at low concentrations,[1],increase Hb at lower concentrations than the positive control phenothiazine
same,rescuing morphological defects and hematopoietic and endothelial defects,[6],work particularly well
same,percentage of erythroid precursor cells (CD71+) compared to DMSO,[7],increased the percentage of erythroid precursor cells
"CCc1cncnc1N1CCN(Cc2nc3cc(C(F)(F)F)ccc3[nH]2)CC1 [PF, 2-[[4-(5-Ethylpyrimidin-4-yl)piperazin-1-yl]methyl]-5-(trifluoromethyl)-1H-benzo[d]imidazole]",hemoglobin (Hb) in rps29−/− embryos,[1],increase Hb
